54 compounds from PubChem BioAssay AID1159564 (GlaxoSmithKline (GSK), 2015) can be followed below.

The test has as its system L. donovani-infected THP-1 macrophages, intracellular amastigote imaging. As to the kind of experiment: intracellular L. donovani amastigote inhibition, imaging, THP-1 host macrophages, host toxicity (AID 1159564).
The mark [1] stands for this setting: measured here: THP-1 host cell toxicity.
Where [2] appears, read: measured here: amastigotes per macrophage.

The source made the active and inactive calls. No rule for the calls is given here.

Regarding `CNS(=O)(=O)c1ccccc1Nc1nc(Nc2cc(C)nn2C)ncc1Cl`, the IC50 (usually the concentration needed to halve the response being measured) was 1 µM. Under setting [1], this compound came in with an IC50 of 0.2 µM. The IC50 under setting [2] turned out to be 0.25 µM.
The matching figures for `COc1ccc2nc(N(Cc3cccnc3)C(=O)C3CCC3)sc2c1`: > 50 µM (inactive), above 50 µM and 50 µM.
The matching figures for `CCc1ccc2nc(NC(=O)c3cc(N4CCOCC4)ccn3)sc2c1`: 1.3 µM, 10 µM and 0.79 µM.
The matching figures for `COc1ccc(C2CC(c3ccc(NS(C)(=O)=O)cc3)=NN2C(=O)c2cccs2)cc1OC` (configuration not stated): 5 µM, above 50 µM and 4 µM.
In the case of `Cc1ccc2ccc(C(Nc3ccccn3)c3cccnc3)c(O)c2n1` (configuration not stated), the 50% inhibitory concentration (IC50) is 13 µM. Under setting [1], this compound returned an IC50 above 50 µM. The compound also came in with an IC50 under setting [2] of 7.9 µM.
For `COc1ccc(C(=O)Nc2cc(C(F)(F)F)ccc2N2CCOCC2)c(OC)c1` the same measures were 10 µM, 13 µM and 7.9 µM.
For `CNC(=O)C1Cc2ccccc2N1C(=O)Cc1ccc(F)cc1` (configuration not stated) the same measures were > 50 µM (inactive), above 50 µM and above 50 µM.
For `Cc1ccc(S(=O)(=O)Cn2nnnc2C(c2cccnc2)N2CCN(c3ccccc3)CC2)cc1` (configuration not stated) the same measures were > 50 µM (inactive), above 50 µM and above 50 µM.
Regarding `COc1cccc(S(=O)(=O)Nc2ccc3c(c2)CC(N2CCC(NC(=O)C4CC4)CC2)C3)c1` (configuration not stated), the IC50 was > 50 µM (inactive). In addition, the IC50 under setting [1] was above 50 µM. The IC50 under setting [2] is 25 µM.
The matching figures for `O=C(NCC(c1cccnc1)N1CCc2ccccc2C1)C(=O)Nc1cccc(Cl)c1` (configuration not stated): > 50 µM (inactive), above 50 µM and above 50 µM.
For `CCC(=O)Nc1ccccc1C(=O)Nc1ccccn1` the same measures were > 50 µM (inactive), above 50 µM and above 50 µM.
Turning to `CCCNC(=O)Nc1cccc(-c2nc3ncccc3o2)c1`, the IC50 was 13 µM. The IC50 under setting [1] came to 20 µM. Besides, under setting [2], the IC50 was 16 µM.
For `O=C(Nc1ccc(-c2nc3ccccc3c(=O)[nH]2)cc1)c1cccs1` the same measures were > 50 µM (inactive), above 50 µM and above 50 µM.
The matching figures for `O=c1cc(NCCCNCc2c[nH]c3ccc(Br)cc23)[nH]c2ccccc12`: > 50 µM (inactive), above 50 µM and above 50 µM.
For `COc1ccc2nccc(NC(=O)C3(OC)CCN(CC(O)c4ccc5c(c4)OCCO5)CC3)c2n1` (configuration not stated) the same measures were 20 µM, 25 µM and 6.3 µM.
In the case of `COc1cc(NC(=O)Nc2cccc(CNC(=O)OC3CCCCC3)c2)ccc1-c1cnco1`, the IC50 is > 50 µM (inactive). The IC50 under setting [1] was 10 µM. Moreover, the IC50 under setting [2] came to 20 µM.
For `COc1ccc(S(=O)(=O)Nc2ccccc2OC)cc1NC(=O)CCCc1c[nH]c2ccccc12` the same measures were > 50 µM (inactive), above 50 µM and above 50 µM.
As to `CN(Cc1ccc(C(N)=O)cc1)C(c1ccc(F)cc1)c1cccnc1` (configuration not stated), the IC50 was > 50 µM (inactive). The same compound showed a 50% inhibitory concentration (IC50) under setting [1] above 50 µM. The compound also registered an IC50 under setting [2] above 50 µM.
For `O=C(Nc1ccc(C(F)(F)F)cc1)NC1(C(=O)NCc2ccco2)CCCCC1`, the IC50 is > 50 µM (inactive). This compound showed an IC50 under setting [1] of 32 µM. Moreover, the IC50 under setting [2] was above 50 µM.
On to `Cc1cccc(N2CCCN(Cc3c[nH]c4ccccc34)CC2)n1`, for which the IC50 is 10 µM. In addition, under setting [1], the IC50 worked out at 10 µM. Besides, the IC50 under setting [2] amounted to 10 µM.
With `NC(=O)c1ccccc1Nc1nc(NC2CCCCC2)nc2[nH]ccc12`, the IC50 was 13 µM. Moreover, the IC50 under setting [1] came to 10 µM. Under setting [2], this compound yielded an IC50 of 13 µM.
As to `Cc1nn(-c2nc3ccccc3s2)c2c1C(c1ccc(OCC(N)=O)cc1)SCC(=O)N2` (configuration not stated), the IC50 was > 50 µM (inactive). In addition, under setting [1], the IC50 is above 50 µM. For the same compound, under setting [2], the IC50 is above 50 µM.
As for `COc1ccc([N+](=O)[O-])cc1NC(=O)c1cc(Cl)ccc1O`, the IC50 was 2 µM. In addition, the IC50 under setting [1] worked out at 10 µM. Under setting [2], the IC50 was found to be 1.6 µM.
For the compound `CC1(C)CCC(=Cc2ccc(Cl)cc2)CC1(O)Cn1ccnc1` (configuration not stated), the IC50 was 7.9 µM. This compound yielded an IC50 under setting [1] of 13 µM. Also, under setting [2], the IC50 is 2 µM.
For the compound `CCOc1ccc(NC(=O)C=Cc2ccc(CC)o2)cc1`, the IC50 is 50 µM. Under setting [1], the IC50 turned out to be 20 µM. Also, the 50% inhibitory concentration (IC50) under setting [2] amounted to 25 µM.
For `Oc1c(-c2n[nH]c(Cc3ccc(F)cc3)n2)ncc2cccnc12` the same measures were 1 µM, 20 µM and 1 µM.
For the compound `CCC1Oc2cc(S(=O)(=O)N(C)CC(=O)N3CCc4ccccc4C3)c(C)cc2NC1=O` (configuration not stated), the IC50 was > 50 µM (inactive). Further, the half-maximal inhibitory concentration (IC50) under setting [1] is above 50 µM. The IC50 under setting [2] was 32 µM.
`NC(=O)c1cc(F)ccc1Nc1nc(NC2CCC(O)CC2)ncc1Cl` (configuration not stated): the IC50 is 1.3 µM. This compound registered an IC50 under setting [1] of 0.63 µM. This compound returned an IC50 under setting [2] of 0.79 µM.
For `Cc1cc(Nc2cc(C3CC3)[nH]n2)nc(N2CCCC2)n1` the same measures were 0.16 µM, 0.13 µM and 0.05 µM.
For `O=C(c1ccc(O)c(Cl)c1)N1CCN(c2cnccn2)CC1` the same measures were 5 µM, above 50 µM and 3.2 µM.
On to `CNc1cncc(C2CCCN2C(=O)Cc2coc3cc(C)ccc23)n1` (configuration not stated), for which the IC50 was > 50 µM (inactive). Besides, the IC50 under setting [1] was above 50 µM. Also, the IC50 under setting [2] was 0.79 µM.
For `Cc1[nH]nc(C(F)(F)F)c1NC(=O)CCn1cc(Cl)c([N+](=O)[O-])n1` the same measures were > 50 µM (inactive), 16 µM and above 50 µM.
For `COc1ccc(C(=O)[C@H]2C[C@@H]2CN(Cc2ccccn2)Cc2ccccn2)cc1` the same measures were 1.6 µM, above 50 µM and 1.3 µM.
The matching figures for `CNc1cc(Cn2c(C(=O)c3cc(C)cc(Cl)c3)c(C(C)C)c(=O)[nH]c2=O)ccn1`: 20 µM, above 50 µM and 13 µM.
Regarding `CN(Cc1cc2ccccc2s1)c1ncc2c(N)nc(N)nc2n1`, the IC50 was 32 µM. The IC50 under setting [1] worked out at 25 µM. In addition, under setting [2], the IC50 was found to be 25 µM.
Consider `COc1ccc(CN(C)Cc2ccncc2)cc1-c1ccc(S(=O)(=O)NC2CCC2)s1`, for which the IC50 is > 50 µM (inactive). Under setting [1], this compound registered an IC50 of 20 µM. Also, the half-maximal inhibitory concentration (IC50) under setting [2] was found to be 16 µM.
For `O=C1c2cnc(N3CCCC3)nc2CN1c1ccc2c(c1)OCO2` the same measures were 10 µM, above 50 µM and 6.3 µM.
For `O=C(Nc1ccccc1C(=O)Nc1ccccn1)c1ccco1` the same measures were > 50 µM (inactive), above 50 µM and above 50 µM.
Consider `CC(C)n1c(-c2nonc2N)nc2cccc(OCCN3CCCC3)c21`, for which the 50% inhibitory concentration (IC50) is 32 µM. Also, the IC50 under setting [1] came out at 32 µM. Under setting [2], this compound registered an IC50 of 20 µM.
With `Cc1ccc2nc(N(Cc3cccnc3)C(=O)CCc3ccccc3)sc2c1`, the IC50 was > 50 µM (inactive). The compound also had an IC50 under setting [1] above 50 µM. For the same compound, the half-inhibitory concentration (IC50) under setting [2] is above 50 µM.
For `CC(c1ccc2c(c1)CCCC2)N(C)c1ncc2c(N)nc(N)nc2n1` (configuration not stated), the half-inhibitory concentration (IC50) was 2 µM. Moreover, the IC50 under setting [1] stood at 25 µM. The compound also displayed an IC50 under setting [2] of 0.79 µM.
For the compound `N#Cc1ccc(S(=O)(=O)N2CCN(Cc3cccc(-c4ccncc4)c3)CC2)cc1`, the IC50 is > 50 µM (inactive). The compound also registered a half-maximal inhibitory concentration (IC50) under setting [1] above 50 µM. Under setting [2], this compound showed an IC50 of 1.3 µM.
Consider `N#Cc1cccc(CNc2ccc(-c3cnn(CC4CC4)c(=O)c3C#N)cc2)c1`, for which the IC50 was 1.3 µM. The IC50 under setting [1] worked out at 6.3 µM. The compound also came in with an IC50 under setting [2] of 0.25 µM.
Consider `Cn1nc(-c2ccc(NC(=O)Cc3ccccc3Cl)cc2)c2c(N)ncnc21`, for which the IC50 was > 50 µM (inactive). In addition, the IC50 under setting [1] was above 50 µM. This compound also gave an IC50 under setting [2] above 50 µM.
Consider `CC(C)(C)c1csc(NC(=O)c2ccc([N+](=O)[O-])s2)n1`, for which the IC50 is 3.2 µM. Further, the IC50 under setting [1] was above 50 µM. Also, the IC50 under setting [2] was found to be 2.5 µM.
Consider `Cc1c(Nc2cc(C3CC3)[nH]n2)ccc(C#N)c1Cl`, for which the IC50 is 40 µM. Under setting [1], the 50% inhibitory concentration (IC50) was 25 µM. The compound further came in with an IC50 under setting [2] of 25 µM.
Turning to `O=C(Nc1nc2ccccc2[nH]1)c1ccc2nc[nH]c2c1`, the IC50 is 5 µM. Also, under setting [1], the 50% inhibitory concentration (IC50) was above 50 µM. Under setting [2], the IC50 is 3.2 µM.
The matching figures for `COc1ncc(-c2ccc3ncnc(N4CCOCC4)c3c2)cc1NS(C)(=O)=O`: 5 µM, 1 µM and 0.63 µM.
For the compound `Cc1nccn1C1CCCN(C(=O)c2cc3c(F)cccc3s2)C1` (configuration not stated), the IC50 is > 50 µM (inactive). Further, the IC50 under setting [1] was above 50 µM. The IC50 under setting [2] is above 50 µM.
As to `O=S(=O)(c1ccccc1C(F)(F)F)N1CCN(Cc2ccc(-n3ccnc3)cc2)CC1`, the IC50 is > 50 µM (inactive). The IC50 under setting [1] was found to be 16 µM. The same compound came in with an IC50 under setting [2] of 25 µM.
The matching figures for `Cc1c(C#N)c([N+](=O)[O-])nn1Cc1cccc(Cl)c1Cl`: > 50 µM (inactive), 16 µM and 16 µM.
The matching figures for `COc1ccc2ncc(Cl)c(CCN3CC[C@H](NCc4cc5c(cn4)OCS5)[C@@H](O)C3)c2n1`: 1 µM, 6.3 µM and 0.5 µM.
The matching figures for `CC(C)CC(=O)Nc1cc(C2CC2)nn1-c1nc2c(c(=O)[nH]1)CCCC2`: 7.9 µM, 5 µM and 5 µM.
In the case of `COc1cc(OC)cc(C(=O)N[C@@H](CC(C)C)C(=O)NC2(C#N)CC2)c1`, the IC50 was > 50 µM (inactive). The same compound registered an IC50 under setting [1] above 50 µM. This compound registered an IC50 under setting [2] above 50 µM.
